We go through 1 compound from patent US8013047B2, “Oligo- and poly-carbonates terminated with silicon containing groups as surface modifiers” (priority 2005, dated 2011).

Data set [1] deals with Staphylococcus aureus ATCC 6538. Nature of the data set: Adhesion of microbes onto polycarbonate extrusion sheets (microtiterplate immunological assay). The data set is classed as cell-based. The settings on record: 5% Tinuvin 1577 alone in polycarbonate sheet; residual adhesion relative to control = 100%; 60 min incubation. The protocol: (§1) A polycarbonate powder [Makrolon 3108 FBL (RTM) from Bayer] is dried in a vacuum oven for eight hours at 120° C. Appropriate amounts of each compound of the formula I is added to the dried polycarbonate powder to obtain formulations containing up to 10% by weight of the compound of the formula I. The formulations are mixed in a Grindo Mix GM 200 and compounded to pellets in a twin-screw extruder (Haake DS16-L/D25 from Thermo Electron Corporation) and further extruded to sheets with a width of 110 mm and thickness of 0.2 mm using a single-screw extruder equipped with a flat die (Collin CR-136/350). The processing temperature is around 280° C. All produced sheets have a transparent visual appearance.
In order to measure the reduced adhesion of microbes onto polymer surfaces the following testing procedure is applied:
The test system is microtiterplate based and is conducted according to the method described in Nature Medicine Vol. 6, No. 8, 1053-1056. Samples equipped with active compounds and untreated control samples are prepared to obtain a same sample size of max. 7×4 mm. […] The microbial cells adhering to the pieces are detected in an immunological assay using specific antibodies against the test strain, which are then detected […]. […]

The nature of data set [2]: Contact angle of polycarbonate extrusion sheets (sessile drop, water). It is filed as physicochemical. The settings on record: 5% Tinuvin 1577 alone in polycarbonate extrusion sheet. The protocol: as §1
The surface properties were evaluated by measuring the contact angle of the polycarbonate sheets described in Example 16 with a Dataphysics OCA 30 contact angle device, using the sessile drop method and water as measuring liquid.

Data set [3] is described as follows: Contact angle of extrusion tapes, compounds as bulk material or additive (sessile drop, water). It is filed as physicochemical. As to conditions: 5% Tinuvin 1577 in 95% Makrolon 3108 FBL, extrusion tape. How it is done:
Appropriate amounts of each compound of the formula I are dried in a vacuum oven for eight hours at 120° C. They are extruded in a twin-screw extruder (MiniLab extruder from Thermo Electron Corporation) equipped with a flat die. In this way, tapes are produced with a width of 5 mm and a thickness of around 0.5 mm. The processing temperature is around 280° C. All produced tapes have a transparent visual appearance. The contact angle of the produced tapes are measured with a Dataphysics OCA 30 contact angle device, using the sessile drop method and water as measuring liquid.

Consider `CCCCCCOc1ccc(-c2nc(-c3ccccc3)nc(-c3ccccc3)n2)c(O)c1` [Tinuvin 1577], for which, in data set [1], the “Adhesion of Staphylococcus aureus ATCC 6538 on polycarbonate in %” value stood at 104%. The “Contact angle (°)” value in data set [2] and in data set [3] was 86 ° each time.
